These results are taken from patent US20250243215A1, “INHIBITORS OF EPIDERMAL GROWTH FACTOR RECEPTOR” (National Health Research Institutes, priority 2024, published 2025).

For experiment [1], the system named is A431 (wild-type EGFR overexpressing) cells. The experiment is described as follows: Cell proliferation assay (MTS), A431. The following applies: Homo sapiens, A-431, 96 h exposure. Type of experiment: cell-based.
Procedure: (§1) A431 (wild-type EGFR overexpressing) and H1975 (double-mutant overexpressing) cells were exposed to test compounds for 96 h and the cell proliferation was determined by the MTS method.
The subject of experiment [2] is H1975 (double-mutant overexpressing) cells. In words: Cell proliferation assay (MTS), H1975. It counts as cell-based. The following applies: Homo sapiens, NCI-H1975, 96 h exposure.
Procedure: as §1

Consider `C=CC(=O)Nc1cc(-c2c(-c3ccccc3)oc3ncnc(NC4CCCC4)c23)ccc1N1CC[C@@H](N(C)C)C1` [Compound 28, N-{5-[4-(Cyclopentylamino)-6-phenylfuro[2,3-d]pyrimidin-5-yl]-2-[(3R)-3-(dimethylamino)pyrrolidin-1-yl]phenyl}prop-2-enamide], for which the IC50 in experiment [1] was > 5000 nM; in experiment [2], 200 to 5000 nM.

For the compound `C=CC(=O)Nc1cc(-c2c(-c3ccccc3)oc3ncnc(NCCc4ccc(O)cc4)c23)ccc1N1CCN(C)CC1` [Compound 36, N-[5-(4-{[2-(4-Hydroxyphenyl)ethyl]amino}-6-phenylfuro[2,3-d]pyrimidin-5-yl)-2-(4-methylpiperazin-1-yl)phenyl]prop-2-enamide], the IC50 in experiment [1] and in experiment [2] was 200 to 5000 nM in each case.

As to `C=CC(=O)Nc1cc(-c2c(-c3ccccc3)oc3ncnc(NCCc4ccc(O)cc4)c23)ccc1N(C)CCN(C)C` [Compound 37, N-[2-{[2-(Dimethylamino)ethyl](methyl)amino}-5-(4-{[2-(4-hydroxyphenyl)ethyl]amino}-6-phenylfuro[2,3-d]pyrimidin-5-yl)phenyl]prop-2-enamide], the IC50 in experiment [1] and in experiment [2] was 200 to 5000 nM each time.

On to `C=CC(=O)Nc1cc(-c2c(-c3ccccc3)oc3ncnc(NCCc4ccc(O)cc4)c23)ccc1N(C)CCN1CCN(C)CC1` [Compound 40, N-[5-(4-{[2-(4-Hydroxyphenyl)ethyl]amino}-6-phenylfuro[2,3-d]pyrimidin-5-yl)-2-{methyl [2-(4-methylpiperazin-1-yl)ethyl]amino}phenyl]prop-2-enamide], for which the IC50 was > 5000 nM in experiment [1] and 200 to 5000 nM in experiment [2].

As for `C=CC(=O)Nc1cc(-c2c(-c3ccccc3)oc3ncnc(NCCc4ccc(S(N)(=O)=O)cc4)c23)ccc1N(C)CCN(C)C` [Compound 41, N-(5-[4-({2-[4-(Aminosulfonyl)phenyl]ethyl}amino)-6-phenylfuro-[2,3-d]pyrimidin-5-yl]-2-{[2-(dimethylamino)ethyl](methyl)amino}phenyl)prop-2-enamide], the results for the IC50 in experiment [1] and in experiment [2] were 200 to 5000 nM and < 200 nM, respectively.

In the case of `C=CC(=O)Nc1cc(-c2c(-c3ccc(F)cc3)oc3ncnc(NC4CCCC4)c23)ccc1N(C)CCN(C)C` [Compound 42, N-(5-[4-(Cyclopentylamino)-6-(4-fluorophenyl)furo[2,3-d]pyrimi-din-5-yl]-2-{[2-(dimethylamino)ethyl](methyl)amino}phenyl)prop-2-enamide], the IC50 was 200 to 5000 nM in experiment [1] and < 200 nM in experiment [2].

Regarding `C=CC(=O)Nc1cc(-c2c(-c3ccccc3)oc3ncnc(Nc4ccccc4)c23)ccc1N(C)CCN(C)C` [Compound 43, N-(2-{[2-(Dimethylamino)ethyl](methyl)amino}-5-[6-phenyl-4-(phenylamino)furo[2,3-d]pyrimidin-5-yl]phenyl)prop-2-enamide], the half-maximal inhibitory concentration (IC50) in experiment [1] is 200 to 5000 nM; in experiment [2], < 200 nM.

On to `C=CC(=O)Nc1cc(-c2c(-c3ccccc3)oc3ncnc(N[C@H]4CC[C@@H](O)CC4)c23)ccc1N(C)CCN(C)C` [Compound 52, N-(2-{[2-(Dimethylamino)ethyl](methyl)amino}-5-{4-[(4-hydroxy-cyclohexyl)amino]-6-phenylfuro[2,3-d]pyrimidin-5-yl}phenyl)prop-2-enamide], for which the IC50 was 200 to 5000 nM in experiment [1] and < 200 nM in experiment [2].

Turning to `C=CC(=O)Nc1cc(-c2c(-c3ccccc3)oc3ncnc(N[C@@H]4CCCC[C@@H]4O)c23)ccc1N(C)CCN(C)C` [Compound 53, N-[2-{[2-(Dimethylamino)ethyl](methyl)amino}-5-(4-{[(1R,2S)-2-hydroxycyclohexyl]amino}-6-phenylfuro[2,3-d]pyrimidin-5-yl)phenyl]prop-2-enamide], the IC50 in experiment [1] was 200 to 5000 nM; in experiment [2], < 200 nM.

Regarding `C=CC(=O)Nc1cc(-c2c(-c3ccccc3)oc3ncnc(N[C@H]4CC[C@H](O)CC4)c23)ccc1N(C)CCN(C)C` [Compound 55, N-(2-{[2-(Dimethylamino)ethyl](methyl)amino}-5-{4-[(4-hydroxy-cyclohexyl)amino]-6-phenylfuro[2,3-d]pyrimidin-5-yl}phenyl)prop-2-enamide], the IC50 in experiment [1] was 200 to 5000 nM; in experiment [2], < 200 nM.

In the case of `C=CC(=O)Nc1cccc(-c2c(-c3ccccc3)oc3ncnc(N4CCC4)c23)c1` [Compound 61, N-{3-[4-(Azetidin-1-yl)-6-phenylfuro[2,3-d]pyrimidin-5-yl]phenyl}prop-2-enamide], the IC50 in experiment [1] is 200 to 5000 nM; in experiment [2], < 200 nM.

For orientation: IC50 means the midpoint of a concentration-inhibition curve.
